The values below come from article PMC6215257, “Erianin against Staphylococcus aureus Infection via Inhibiting Sortase A” (Toxins, 2018).

The target in one experiment is T1, V193A-SrtA (Sortase A) (Staphylococcus aureus, UniProt Q2FV99, V193A).
T1 construct: residues 60–206 (pG-srtAΔN59, pGEX-6P-1)
Briefly: fluorescence quenching binding constant (KA); FRET inhibition reduced vs WT.

In the next experiment the target is T2, Sortase A (srtA) (Staphylococcus aureus, UniProt Q2FV99).
T2 construct: residues 60–206 (pG-srtAΔN59, pGEX-6P-1)
In words: FRET peptide cleavage assay with purified SrtA; binding also by fluorescence quenching (KA […] L/mol). Format: biochemical.

For another experiment, the target named is T3, R197A-SrtA (Sortase A) (Staphylococcus aureus, UniProt Q2FV99, R197A).
T3 construct: residues 60–206 (pG-srtAΔN59, pGEX-6P-1)
In words: fluorescence quenching binding constant (KA); FRET inhibition reduced vs WT.

As usually defined, the Kd is the free concentration of one partner at which half of the binding sites on the other are occupied at equilibrium, for simple one-to-one binding. In general, IC50 refers to the concentration that inhibits the measured activity by half. A high value points to weaker potency. With `COc1ccc(CCc2cc(OC)c(OC)c(OC)c2)cc1O` [erianin], the Kd at V193A-SrtA (Sortase A) was 2280 nM; at R197A-SrtA (Sortase A), 2530 nM. In addition, on Sortase A (srtA), the IC50 was determined as 65700 ± 7200 nM.
